Experimental data from patent publication US11358933B2, “Compounds and methods for inhibiting CYP26 enzymes” (Queen's University at Kingston, priority 2017, dated 2022).

Tests used:
CYP26A1 = CYP26A1 (Homo sapiens (Human), UniProt O43174); experiment: Cell-based inhibitor assay ([3H]-RA metabolism), CYP26A1 stably transfected HeLa cells
Procedure: (§1) CYP26A1 or CYP26B1 stably transfected HeLa cells were maintained in Minimum Essential Medium (MEM) containing 10% fetal bovine serum (FBS) and 100 μg/mL hygromycin. Exponentially growing cells were harvested by incubation in trypsin. Cells were then collected and re-plated in 48-well culture plates at 5×10^5 cells in 0.2 mL of culture medium containing 0.05 μCi [^3H]-RA in the presence or absence of increasing concentrations of a test compound. The test compounds were diluted in dimethyl sulfoxide (DMSO) and then added in duplicate to wells at 0.01, 0.1, 1, 10 and 100 μM final concentration. As a positive control for inhibition of RA metabolism, cells were also incubated with ketoconazole at the same concentrations as above. Cells were incubated for 3 hours at 37° C. Retinoids were then extracted using the procedure of Bligh, et al., (1959), Canadian Journal of Biochemistry 37, 911-917, which was modified by using dichloromethane instead of chloroform. Each sample's water soluble radioactivity level was quantified using a β-scintillation counter (using Ecolume scintillation fluid, available from MP Biomedicals of Solon, Ohio, USA). IC50 values represented the concentration of inhibitor required to inhibit all trans-RA metabolism by 50%, and were derived from log transformed data.

CYP26B1 = CYP26B1 (Homo sapiens (Human), UniProt Q9NR63); experiment: Cell-based inhibitor assay ([3H]-RA metabolism), CYP26B1 stably transfected HeLa cells
Chain of CYP26B1 (Q9NR63 whole entry): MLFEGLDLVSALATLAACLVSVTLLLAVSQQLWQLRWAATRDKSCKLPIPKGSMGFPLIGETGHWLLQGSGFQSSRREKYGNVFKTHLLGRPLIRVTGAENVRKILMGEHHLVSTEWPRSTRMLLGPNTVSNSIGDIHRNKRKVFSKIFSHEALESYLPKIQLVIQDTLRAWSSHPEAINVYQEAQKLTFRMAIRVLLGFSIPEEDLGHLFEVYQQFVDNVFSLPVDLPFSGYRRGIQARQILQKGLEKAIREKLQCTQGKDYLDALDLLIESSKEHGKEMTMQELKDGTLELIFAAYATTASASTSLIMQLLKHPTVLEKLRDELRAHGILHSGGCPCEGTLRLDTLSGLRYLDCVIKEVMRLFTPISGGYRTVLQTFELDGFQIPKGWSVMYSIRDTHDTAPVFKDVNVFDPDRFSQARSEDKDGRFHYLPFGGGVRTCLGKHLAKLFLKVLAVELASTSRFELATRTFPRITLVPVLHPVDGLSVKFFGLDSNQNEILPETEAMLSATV
Procedure: as §1

[1] = test system: Cyp26a1-luc construct in MCF-7 cells; experiment: Retinoid activity assay, Cyp26a1-luc reporter in MCF-7 cells; assay type: cell-based; settings: for Rel. Luciferase Activity (mean): 24 hours, firefly relative to Renilla luciferase
Description: This retinoid activity assay measures the ability of test compounds to induce expression of a transiently transfected RA sensitive reporter construct. In this assay, MCF-7 cells are transfected with a construct comprising an upstream promoter of the CYP26A1 gene containing 2 RA response elements driving expression of firefly luciferase (pCYP26A1-luc). Since CYP26A1 is highly inducible by RA in these cells, this construct serves as a sensitive reporter of retinod-like transcriptional activity.
MCF-7 cells were maintained in a RPMI-1640 medium containing 10% FBS. Exponentially growing cells were harvested by incubation in trypsin. Cells were then collected and plated in 24-well plates at 50,000 cells/well. Once cells reached 80-90% confluence (e.g., the next day), cells were transfected with two plasmids. The first plasmid was CYP26A1-luc construct (375 ng). The second plasmid was a control plasmid comprising the Renilla luciferase gene driven by constitutive thymidine kinase promoter (pRL-tk) (25 ng). Transfection was performed using FuGene 6 transfection reagent (Promega) with a 1:3 ratio of DNA:FuGene. 24 hours after transfection, cells were treated with test compounds diluted in DMSO in triplicate at 0.1, 1 and 10 μM final concentrations. As a positive control for reporter activation, cells were also treated with RA diluted in DMSO at the same concentrations listed above. DMSO treatment alone served as a negative control. After 24 hours of treatment, cells were harvested in passive lysis buffer (Promega) and luciferase activity in cell lysates were read using a luminometer. Data are expressed as the activity of firefly luciferase relative to Renilla luciferase (see Tables 3-5). For CYP26A1 inhibitor compounds, no activation of the reporter was detected, while the related retinoid-like compound induces luciferase expression.

[2] = test system: RA target genes in primary human bone marrow cells; experiment: RA target gene expression in primary human bone marrow stromal cells; assay type: cell-based; settings: co-treatment with RA
MV4-11 cells = experiment: Leukemia cell differentiation by FACS (CD11b+), MV4-11 cells with or without stroma; assay type: cell-based, human; settings: RA plus compound, in the presence of stroma
Procedure: Many human non-APL AML cell lines are sensitive to RA-induced differentiation. However, co-culture of leukemic cells with bone marrow stromal cells can block this effect of RA. This assay tests the ability of CYP26 inhibitor compounds to overcome the protective effect that stromal cells have on leukemic cell differentiation. For these experiments, OP9 mouse bone marrow stromal cells are grown MEM-α containing 20% FBS, in 24 well plates until a cell monolayer is formed. OP9 cells are then irradiated (15Gy) using a GammaCell 20 cesium-137 source (located at Queen's University) in order to induce growth arrest. Leukemic cells are then added to the irradiated monolayers, or control wells without OP9 cells. AML cell lines (150,000 cells) are then plated onto OP9 monolayers in their appropriated growth medium; THP-1 RPMI-1640 medium containing 10% FBS; MDSL, RPMI-1640 medium containing 10% FBS and 10 ng/ml recombinant human IL-3; Kasumi-1, RPMI-1640 containing 20% FBS; MV4-11, IMDM containing 10% FBS. […] Stained cells are then sorted by FACS in a BD FACS Aria 3 flow cytometer (Queen's University) using FACS Diva software, to assess percentage of cells that are CD11b^+, the relative expression levels of CD11b (by median fluorescence intensity—MFI), or percentage of CD34^+CD38^− leukemic stem cells (LSCs). […]

Chain of CYP26A1 (O43174 whole entry): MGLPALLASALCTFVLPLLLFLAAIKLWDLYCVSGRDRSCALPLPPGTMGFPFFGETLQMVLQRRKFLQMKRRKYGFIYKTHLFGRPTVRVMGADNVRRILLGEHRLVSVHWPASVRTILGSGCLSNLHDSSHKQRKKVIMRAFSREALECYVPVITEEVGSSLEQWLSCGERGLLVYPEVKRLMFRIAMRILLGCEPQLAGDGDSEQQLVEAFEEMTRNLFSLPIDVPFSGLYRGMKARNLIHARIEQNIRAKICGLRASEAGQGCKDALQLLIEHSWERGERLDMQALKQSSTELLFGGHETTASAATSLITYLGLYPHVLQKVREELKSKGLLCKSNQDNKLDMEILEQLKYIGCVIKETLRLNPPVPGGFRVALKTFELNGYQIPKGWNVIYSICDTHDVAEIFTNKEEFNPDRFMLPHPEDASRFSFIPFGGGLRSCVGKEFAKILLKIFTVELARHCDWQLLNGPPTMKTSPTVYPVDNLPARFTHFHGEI

`CC(C)(C)c1cccc(-c2cc3cc(/C=C/C(=O)O)ccc3[nH]2)c1` [Compound 026] was tested, and the “CYP26A1 inhibition compared with ketoconazole” value (CYP26A1; FIG. 1) was “comparable to ketoconazole”, the IC50 (CYP26A1; HeLa cell-based assay, 3 hours) was 7 µM and the “CYP26A1 Rel. to keto” value (CYP26A1; IC50 relative to ketoconazole) was 4.4. The “CYP26B1 inhibition compared with ketoconazole” value (CYP26B1; FIG. 2) was “dramatically increased inhibition of CYP26B1 enzyme activity compared with ketoconazole”, the “Selectivity CYP26B1 versus CYP26A1” value (CYP26B1; HeLa cell-based assay) was “highly selective towards CYP26B1” and the IC50 (CYP26B1; HeLa cell-based assay, 3 hours) was 0.2 µM. For the same compound, the “CYP26B1 Rel. to keto” value (CYP26B1; IC50 relative to ketoconazole) was 0.02, the “Agonist activity in luciferase reporter transactivation experiment” value [1] was “did not show agonist activity” and the “Rel. Luciferase Activity (mean)” value ([1]; 0.1 μM) was “.0522”. The “Rel. Luciferase Activity (mean)” value ([1]; 1 μM) was “.0472”, the “Rel. Luciferase Activity (mean)” value ([1]; 10 μM) was “.0678” and the “Expression of RA target genes in response to RA, co-treatment” value [2] was “greatly enhanced and prolonged expression of RA target genes”. The “RA-induced differentiation (CD11b+ cells)” value (MV4-11 cells) was “rescued RA-induced differentiation in the presence of stroma”.
